The results in this text go back to patent US20170350876A1, “BIOSENSOR FOR SINGLE CELL ANALYSIS” (priority 2016, published 2017).

Experiment [1] has as its system MCF-7 single cells. The experiment can be described thus: Single cell impedance monitoring on the biosensor (EDR single cell analysis). It counts as cell-based, human. The following applies: for mean impedance changes of the single cells over time, in words: 2.1 and 10.5 nM MBZ, 0.1 and 1 nM PTX, nano-roughened biosensor, about 4 kHz, FIG. 12A. As to the method:
MCF-7 cell lines which were acquired to be used in this example. The cell lines have been separated from grad I human breast tumors. The cell lines were maintained at 37° C. in an incubator (about 5% CO2, about 95% clean air) and in RPMI-1640 medium supplemented with about 5% fetal bovine serum and about 1% penicillin/streptomycin. The fresh medium was replaced every other day. In order to detach cell from the substrate and become suspended in cell solution, cells was trypsynized. As performing cell culturing process at room temperature of about 20° C. -22° C., trypsinization should be done in less than about 6 minutes to minimize the influence of trypsinization. The cell solution was dropped onto an exemplary biosensor, which was fabricated according to EXAMPLE 1, and then the biosensor was maintained in an incubator for about 4 hours to reach cells attachment on the biosensor surface and trapping single cells within microwells of the biosensor.
Exemplary biosensors with cell solutions dropped onto them (as described herein in EXAMPLE 2) were maintained in an incubator for about 4 hours to reach cells attachment on biosensors surface. MBZ and PTX antitubulin drugs were added into the microwells containing single cells in low concentrations (about 2.1 nM for MBZ and about 0.1 nM for PTX) and high concentrations (about 10.5 nM for MBZ and about 1 nM for PTX) concentrations. The signals were recorded 2 hours, 5 hours, 8 hours, 20 hours, 32 hours, and 44 hours after drug addition that means 6 hours, 9 hours, 12 hours, 24 hours, […]. Electrical signals Measurements were collected in frequencies ranged from about 1 KHz to about 60 KHz by impedance measurement system (electrical signal extraction board) at about every 2 hours. A small “ac” sinusoidal signal was applied to the sensors. For different frequencies of the “ac” signal, the sensitivity of the sensor would vary which is called as the frequency characteristics. The bias voltage of the system was about 40 mV which wasn't destructive for cellular metabolism and a series resistance was used as current limiter element. For each cell trapped in each microwell of the biosensors, four electrodes may be used for signal extraction in two states (with up-down or right-left neighbor electrodes). The final result may be the average of the several signals extracted from the different sensors on a chip (several microwells on a biosensor) to consider cellular heterogeneity and different positioning of the cells relative to the electrodes and other parameters.
FIGS. 10A-10F show impedance diagrams for a MCF-7 single cell seeded and trapped in a microwell between electrodes about 4 hours after dropping the solution containing cells, which was assumed as an initial time (T=0) for all measurement experiments. After the attachment of the cell on the region between recording or sensing electrodes (after about 4 hours), observable increment in impedance was recorded with respect to media solution covered state (curve 1001 Vs. curve 1002 in FIG. 10A). T parameter was defined as a time merit started after dropping of the cells (t=4 hours was assumed equal to T=0). Delta Z (ΔZ) may include the difference between impedance at about 4 hours after cell seeding (equal to T=0) and the 4+x^th hours (x may be equal to 2, 5, 8, etc.), divided by the impedance at T=0. Average impedance of all frequencies were used for comparison. For better comprehension of impedimetric regime, the impedance changes of the CTRL cell were plotted in subsequently next time periods (about 6th, 9th, 12th and 24th hours) with respect to the impedance of the sensor in 4th hours after dropping the cells solution that are shown by curves 1003 (at T=2 or t=6 hours), 1004 (at T=5 or t=9 hours), 1005 (at T=8 or t=12 hours), and 1006 (at T=20 or t=24 hours) in FIG. 10B. […]

Experiment [2] deals with MCF-7 cells, cytoskeletal structure (microtubules). The experiment can be described thus: Confocal imaging of drug treated single cells (anti-α-tubulin staining). The following applies: 10.5 nM MBZ or 1 nM PTX, about 20 hours after drug treatment, compared with CTRL.

In the case of `COC(=O)Nc1nc2ccc(C(=O)c3ccccc3)cc2[nH]1` [MBZ, methyl5-benzoyl-2-benzimidazole-carbamate], the impedance reduction result in experiment [1] (2.1 nM MBZ, T=2 hours, relative to T=0, FIG. 10C) is listed as “about 5%”; in experiment [1] (2.1 nM MBZ, T=6 hours (so in the source), relative to T=0, FIG. 10C) it was ~10%; in experiment [1] (2.1 nM MBZ, T=8 hours, relative to T=0, FIG. 10C), “about 15%”; in experiment [1] (2.1 nM MBZ, T=20 hours, relative to T=0, FIG. 10C) it was ~30%; in experiment [1] (10.5 nM MBZ, first time interval (T=2 hours), FIG. 10D), “about 15%”; in experiment [1] (10.5 nM MBZ, fourth time interval (T=20 hours), FIG. 10D), ~45%. For the same molecule, the impedance reduction in experiment [1] (10.5 nM MBZ, second time interval (T=6 hours as printed), FIG. 10D) was ~25%; in experiment [1] (10.5 nM MBZ, third time interval (T=8 hours), FIG. 10D), ~35%. Also, the “mean impedance changes of the single cells over time, in words” value in experiment [1] is reported as “continues reduction in the impedance which exhibited a linier correlation with doses of the drug”. Moreover, the “effect on cytoskeletal structure and mitosis (confocal images), in words” value in experiment [2] was “No entrance to even primary cycles of mitosis, degraded distribution of cytoskeleton and monoastered microtubules”.
For the molecule `CC(=O)O[C@H]1C(=O)[C@@]2(C)[C@H]([C@H](OC(=O)c3ccccc3)[C@]3(O)C[C@H](OC(=O)[C@H](O)[C@@H](NC(=O)c4ccccc4)c4ccccc4)C(C)=C1C3(C)C)[C@]1(OC(C)=O)CO[C@@H]1C[C@@H]2O` [PTX, Paclitaxel], the impedance increment entry in experiment [1] (0.1 nM PTX, T=about 2 hours, relative to T=0, FIG. 10E) was “about 10%”; in experiment [1] (0.1 nM PTX, T=about 5 hours, relative to T=0, FIG. 10E), ~30%; in experiment [1] (0.1 nM PTX, T=about 8 hours, relative to T=0, FIG. 10E), ~35%; in experiment [1] (0.1 nM PTX, T=about 20 hours, relative to T=0, FIG. 10E) it was ~45%; in experiment [1] (1 nM PTX (high dose), T=2 hours, FIG. 10F), “about 5%”; in experiment [1] (1 nM PTX (high dose), T=5 hours, FIG. 10F) it was ~15%. In addition, the impedance increment is given as ~20% in experiment [1] (1 nM PTX (high dose), T=8 hours, FIG. 10F) and ~25% in experiment [1] (1 nM PTX (high dose), T=20 hours, FIG. 10F). Further, in experiment [1], the “mean impedance changes of the single cells over time, in words” value is listed as “moderate impedance increment with dose dependent reductive regime”. In addition, in experiment [2], the “effect on cytoskeletal structure and mitosis (confocal images), in words” value is “aggregated MTs as polymerizing effect of Taxol on cytoskeletal structure which induced mitotic arrest in the cell and deformed the nucleus during the mitosis”.
